Reference: the supplement of paper PMC10307832

How the values were obtained:
Experiment in all cases: relative viability (nuclei count vs DMSO), 5 days (fraction); higher = more cells survive
AGI-6780 + Navitoclax = compound: O=C(Nc1cccc(C(F)(F)F)c1)Nc1cc(S(=O)(=O)NC2CC2)ccc1-c1ccsc1 [AGI-6780] + CC1(C)CCC(c2ccc(Cl)cc2)=C(CN2CCN(c3ccc(C(=O)NS(=O)(=O)c4ccc(N[C@H](CCN5CCOCC5)CSc5ccccc5)c(S(=O)(=O)C(F)(F)F)c4)cc3)CC2)C1 [Navitoclax] (partner 0.5 µM)
Outline: (§1)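 Medians of duplicate plates are given as relative viability. That measure is the nuclei count in treated wells divided by the count in vehicle wells. Counts were taken on 4× images of lung cancer cell lines in 1536-well plates, 5 days after pin-tool dosing the day after seeding with one drug alone or a fixed anchor-drug dose plus five library-drug doses (not always all listed) in √10 steps.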

AGI-6780 + Crizotinib = compound: O=C(Nc1cccc(C(F)(F)F)c1)Nc1cc(S(=O)(=O)NC2CC2)ccc1-c1ccsc1 [AGI-6780] + C[C@@H](Oc1cc(-c2cnn(C3CCNCC3)c2)cnc1N)c1c(Cl)ccc(F)c1Cl [Crizotinib] (partner 1 µM)
Outline: as §1

AGI-6780 + Tozasertib = compound: O=C(Nc1cccc(C(F)(F)F)c1)Nc1cc(S(=O)(=O)NC2CC2)ccc1-c1ccsc1 [AGI-6780] + Cc1cc(Nc2cc(N3CCN(C)CC3)nc(Sc3ccc(NC(=O)C4CC4)cc3)n2)n[nH]1 [Tozasertib] (partner 0.1 µM)
Outline: as §1

AGI-6780 + Vorinostat = compound: O=C(Nc1cccc(C(F)(F)F)c1)Nc1cc(S(=O)(=O)NC2CC2)ccc1-c1ccsc1 [AGI-6780] + O=C(CCCCCCC(=O)Nc1ccccc1)NO [Vorinostat] (partner 1 µM)
Outline: as §1

Cell Line	relative viability (AGI-6780 + Navitoclax; first compound 0.08 µM)	relative viability (AGI-6780 + Navitoclax; first compound 0.253 µM)	relative viability (AGI-6780 + Navitoclax; first compound 0.8 µM)	relative viability (AGI-6780 + Navitoclax; first compound 2.53 µM)	relative viability (AGI-6780 + Navitoclax; first compound 8 µM)	relative viability (AGI-6780 + Crizotinib; first compound 0.08 µM)	relative viability (AGI-6780 + Crizotinib; first compound 0.253 µM)	relative viability (AGI-6780 + Crizotinib; first compound 0.8 µM)	relative viability (AGI-6780 + Crizotinib; first compound 2.53 µM)	relative viability (AGI-6780 + Crizotinib; first compound 8 µM)	relative viability (AGI-6780 + Tozasertib; first compound 0.08 µM)	relative viability (AGI-6780 + Tozasertib; first compound 0.253 µM)	relative viability (AGI-6780 + Tozasertib; first compound 0.8 µM)	relative viability (AGI-6780 + Tozasertib; first compound 2.53 µM)	relative viability (AGI-6780 + Tozasertib; first compound 8 µM)	relative viability (AGI-6780 + Vorinostat; first compound 0.08 µM)	relative viability (AGI-6780 + Vorinostat; first compound 0.253 µM)	relative viability (AGI-6780 + Vorinostat; first compound 0.8 µM)	relative viability (AGI-6780 + Vorinostat; first compound 2.53 µM)	relative viability (AGI-6780 + Vorinostat; first compound 8 µM)
CAL-12T	1.2	1.17	1.38	1.53	1.25	0.686	0.681	0.61	0.87	0.716	0.389	0.32	0.3	0.276	0.31	0.884	0.729	1.16	0.662	0.732
NCI-H2405	0.8	0.9	0.725		0.836	0.839	0.801	0.583	0.827	0.829	0.813	0.728	0.565	0.766	0.661		0.975	0.943	0.937	0.954
LOU-NH91	0.718	0.735	0.698	0.575	0.775	0.753	0.764	0.712	0.705	0.715	0.725	0.642	0.63	0.583	0.64	0.954	0.92	0.953	0.926	0.913
EPLC-272H	1.17	1.37	1.02	0.918	1.08	0.888	0.929	0.841	0.714	0.791		0.307	0.281	0.187	0.257	0.351	0.401	0.318	0.554	0.289
NCI-H1993	1.1	0.986	0.903	0.667	1.14	0.899	0.913	0.931	0.84	1	0.547	0.588	0.623	0.464	0.536	1.21	0.811	0.853		0.784
BEN	0.0592	0.0703	0.0549		0.0845	0.891	0.738	0.955		0.966	0.526	0.497	0.503	0.433	0.425	0.62	0.539	0.692		0.629
NCI-H1734	0.889	0.814	0.778		0.861	0.753	0.648	0.757		0.752	0.22	0.294	0.246	0.242	0.268	0.798	0.842	0.865	0.728	0.799
NCI-H2347	0.7	0.839	0.552	0.605	0.841	0.733	0.738	0.59	0.663	0.801	0.596	0.644	0.518	0.373	0.644	0.575	0.587	0.637	0.553	0.784
NCI-H647	1.2	1.22	1.33	1.09	1.19	1.1	1.13	1.38	0.96	1.15	0.299	0.302	0.37	0.181	0.281	0.734	0.628	0.942	0.572	0.752
COR-L 105	0.918	0.62	0.841	0.862	0.763	0.899	0.738	1.01	0.708	0.848	0.402	0.357	0.388	0.336	0.441	0.908	1.34	0.975	0.97	0.841
H3255	0.395	0.537	0.688	0.292	0.516	0.884	0.848	0.997	0.84	0.921	0.593	0.52	0.462	0.585	0.552	0.541	0.865	0.893		0.867
LCLC-97TM1	0.503	0.702	0.642		0.431	0.417	0.48	0.668		0.344	0.217	0.265	0.291	0.195	0.197	0.739	0.886	0.785	0.572	0.598
NCI-H3122	1.03	1.03	1.02	1.07	0.977	0.252	0.291	0.301	0.252	0.293	0.373	0.398	0.445	0.298	0.389	1.03	0.805	0.843	0.832	1.02
HCC-366	1.03	1.12	0.984	0.944	1.05	0.606	0.56	0.445	0.335	0.374	0.102	0.184	0.0941	0.0598	0.0437	0.355	0.315	0.346	0.285	0.446
SK-LU-1	0.904	0.961	0.418	0.851	0.955	1.01	0.904	0.629	0.936	0.878	0.309	0.318		0.279	0.327	0.816	0.798	0.534	0.732	0.786
NCI-H1944	1.07	1.09	1.01	0.792	1.02	1.16	1.12	1.25	0.926	1.02	0.252	0.27	0.247		0.242	0.641	0.523	0.575		0.579
HCC-15	0.727	0.698	0.743	0.641	0.684	0.831	0.833	0.834	0.813	0.825	0.625	0.438	0.547	0.186	0.458	0.917	0.88	0.875	0.832	0.828
